Reference: patent US20220313698A1, “MODULATORS OF CYSTIC FIBROSIS TRANSMEMBRANE CONDUCTANCE REGULATOR” (Vertex Pharmaceuticals Incorporated, priority 2019, published 2022)

Tests used:
[1] = target: T1, CFTR-mediated chloride transport (Homo sapiens, UniProt P13569); experiment: Corrector Assay A - membrane potential dye assay (enteroid cells); settings: for Corrector Assay A % activity: % of chloride transport of triple combination control (1 μM (14S)-dispiro macrocycle + 3 μM tezacaftor + 300 nM ivacaftor); for EC50: read-out: Corrector Assay A EC50, human intestinal enteroid cells, 18-24 h incubation, acute 10 μM forskolin + 300 nM ivacaftor
[2] = target: T1, CFTR-mediated chloride transport; experiment: Corrector Assay B - membrane potential dye assay (enteroid cells); settings: for Corrector Assay B % activity: % of chloride transport of triple combination control (3 μM Compound A + 3 μM tezacaftor + 300 nM ivacaftor); for EC50: read-out: Corrector Assay B EC50, human intestinal enteroid cells, 18-24 h incubation, acute 10 μM forskolin + 300 nM ivacaftor;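 on all read-outs here: methyl oxonol membrane potential fluorescence followed over 15 min after switching to chloride-free buffer with forskolin, 100 µM IBMX and ivacaftor, in presence of CaCC blockers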
Experimental: Base medium (ADF+++) consisted of Advanced DMEM/Ham's F12, 2 mM Glutamax, 10 mM HEPES, 1 μg/ml penicillin/streptomycin.
Intestinal enteroid maintenance medium (IEMM) consisted of ADF+++, 1×B27 supplement, 1×N2 supplement, 1.25 mM N-acetyl cysteine, 10 mM Nicotinamide, 50 ng/mL hEGF, 10 nM Gastrin, 1 μg/mL hR-spondin-1, 100 ng/mL hNoggin, TGF-b type 1 inhibitor A-83-01, 100 μg/mL Primocin, 10 μM P38 MAPK inhibitor SB202190.
Bath 1 Buffer consisted of 1 mM MgCl2, 160 mM NaCl, 4.5 mM KCl, 10 mM HEPES, 10 mM Glucose, 2 mM CaCl2).
Chloride Free Buffer consisted of 1 mM Magnesium Gluconate, 2 mM Calcium Gluconate, 4.5 mM Potassium Gluconate, 160 mM Sodium Gluconate, 10 mM HEPES, 10 mM Glucose.
Bath 1 Dye Solution consisted of Bath 1 Buffer, 0.04% Pluronic F127, 20 μM Methyl Oxonol, 30 μM CaCCinh-A01, 30 μM Chicago Sky Blue.
Chloride Free Dye Solution consisted of Chloride Free Buffer, 0.04% Pluronic F127, 20 μM Methyl Oxonol, 30 μM CaCCinh-A01, 30 μM Chicago Sky Blue.
Chloride Free Dye Stimulation Solution consisted of Chloride Free Dye Solution, 10 μM forskolin, 100 μM IBMX, and 300 nM Ivacaftor.
Cells were recovered in cell recovery solution, collected by centrifugation at 650 rpm for 5 min at 4° C., resuspended in TryPLE and incubated for 5 min at 37° C. Cells were then collected by centrifugation at 650 rpm for 5 min at 4° C. and resuspended in IEMM containing 10 μM ROCK inhibitor (RI). The cell suspension was passed through a 40 μm cell strainer and resuspended at 1×10^6 cells/mL in IEMM containing 10 μM RI. Cells were seeded at 5000 cells/well into multi-well plates and incubated for overnight at 37° C., 95% humidity and 5% CO2 prior to assay.
Briefly, cells were washed 5 times in Bath 1 Buffer. Bath 1 Dye Solution was added and the cells were incubated for 25 min at room temperature. Following dye incubation, cells were washed 3 times in Chloride Free Dye Solution. Chloride transport was initiated by addition of Chloride Free Dye Stimulation Solution and the fluorescence signal was read for 15 min. The CFTR-mediated chloride transport for each condition was determined from the AUC of the fluorescence response to acute forskolin and 300 nM N-[2,4-bis(1,1-dimethylethyl)-5-hydroxyphenyl]-1,4-dihydro-4-oxoquinoline-3-carboxamide stimulation. Chloride transport was then expressed as a percentage of the chloride transport following treatment with 3 μM Compound A, 3 μM (R)-1-(2,2-difluorobenzo[d][1,3]dioxol-5-yl)-N-(1-(2,3-dihydroxypropyl)-6-fluoro-2-(1-hydroxy-2-methylpropan-2-yl)-1H-indol-5-yl)cyclopropanecarboxamide and 300 nM acute N-[2,4-bis(1,1-dimethylethyl)-5-hydroxyphenyl]-1,4-dihydro-4-oxoquinoline-3-carboxamide triple combination control (% Activity).

Corrector Assay A % activity [1] | EC50 [1] [µM] | Corrector Assay B % activity [2] | EC50 [2] [µM] | Compound
+++ (+++ is >60%) | < 1 | +++ (+++ is >60%) | < 1 | CC(C)(C)c1ccc2c(n1)N1C[C@@H](CC[C@@H](c3ccccc3)Nc3cccc(n3)S(=O)(=O)NC2=O)CC1(C)C (single isomer, unassigned) [Compound 294]
+++ (+++ is >60%) | < 1 | +++ (+++ is >60%) | < 1 | CC(C)(C)c1ccc2c(n1)N1C[C@@H](CCC(c3cncnc3)Nc3cccc(n3)S(=O)(=O)NC2=O)CC1(C)C (single isomer, unassigned) [Compound 297]
 |  | +++ (+++ is >60%) | < 1 | CC1(C)C[C@@H]2CCCN(C[C@@H](O)CO)c3cccc(n3)S(=O)(=O)NC(=O)c3ccc(-n4ccc(OCCC5(C(F)(F)F)CC5)n4)nc3N1C2 (single isomer, unassigned) [Compound 379]
 |  | +++ (+++ is >60%) | < 1 | CC1(C)C[C@@H]2CCCN(C[C@H](O)CO)c3cccc(n3)S(=O)(=O)NC(=O)c3ccc(-n4ccc(OCCC5(C(F)(F)F)CC5)n4)nc3N1C2 (single isomer, unassigned) [Compound 381]
 |  | +++ (+++ is >60%) | < 1 | CC1(C)C[C@@H]2CCCN(CC3COC3)c3cccc(n3)S(=O)(=O)NC(=O)c3ccc(-n4ccc(OCCC5(C(F)(F)F)CC5)n4)nc3N1C2 [Compound 359]
 |  | ++ (++ is 30-60%) | < 1 | CC1(C)C[C@@H]2CCCN(CCCCCC#N)c3cccc(n3)S(=O)(=O)NC(=O)c3ccc(-n4ccc(OCCC5(C(F)(F)F)CC5)n4)nc3N1C2 [Compound 369]
 |  | ++ (++ is 30-60%) | < 1 | CN(C)C(=O)CN1CCC[C@@H]2CN(c3nc(-n4ccc(OCCC5(C(F)(F)F)CC5)n4)ccc3C(=O)NS(=O)(=O)c3cccc1n3)C(C)(C)C2 [Compound 376]
 |  | +++ (+++ is >60%) | < 1 | CC1(C)C[C@@H]2CCCN(CCC#N)c3cccc(n3)S(=O)(=O)NC(=O)c3ccc(-n4ccc(OCCC5(C(F)(F)F)CC5)n4)nc3N1C2 [Compound 377]

The remaining lines, values behind:

Compound | Corrector Assay A % activity [1] | EC50 [1] [µM] | Corrector Assay B % activity [2] | EC50 [2] [µM]
CC(C)(C)c1ccc2c(n1)N1C[C@@H](CCC(c3ccccn3)Nc3cccc(n3)S(=O)(=O)NC2=O)CC1(C)C (single isomer, unassigned) [Compound 292] | +++ (+++ is >60%) | < 1 | +++ (+++ is >60%) | < 1
CC(C)(C)c1ccc2c(n1)N1C[C@@H](CCC(c3ccccn3)Nc3cccc(n3)S(=O)(=O)NC2=O)CC1(C)C (single isomer, unassigned) [Compound 293] | ++ (++ is 30-60%) | < 1 | +++ (+++ is >60%) | < 1
CC(C)(C)c1ccc2c(n1)N1C[C@@H](CC[C@@H](c3ccccc3)Nc3cccc(n3)S(=O)(=O)NC2=O)CC1(C)C (single isomer, unassigned) [Compound 295] | ++ (++ is 30-60%) | < 1 | +++ (+++ is >60%) | < 1
CC1(C)C[C@@H]2CCC(c3ccccn3)Nc3cccc(n3)S(=O)(=O)NC(=O)c3ccc(-n4ccc(OCCC5(C(F)(F)F)CC5)n4)nc3N1C2 (single isomer, unassigned) [Compound 361] | +++ (+++ is >60%) | < 1 | +++ (+++ is >60%) | < 1
CC1(C)C[C@@H]2CCC(c3ccccn3)Nc3cccc(n3)S(=O)(=O)NC(=O)c3ccc(-n4ccc(OCCC5(C(F)(F)F)CC5)n4)nc3N1C2 (single isomer, unassigned) [Compound 362] | +++ (+++ is >60%) | < 1 | +++ (+++ is >60%) | 
CC1(C)C[C@@H]2CCC(c3ccccc3)Nc3cccc(n3)S(=O)(=O)NC(=O)c3ccc(-n4ccc(OCCC5C6(CC6)C56CC6)n4)nc3N1C2 (single isomer, unassigned) [Compound 363] | +++ (+++ is >60%) | < 1 | +++ (+++ is >60%) | < 1
CC1(C)C[C@@H]2CCC(c3ccccc3)Nc3cccc(n3)S(=O)(=O)NC(=O)c3ccc(-n4ccc(OCCC5C6(CC6)C56CC6)n4)nc3N1C2 (single isomer, unassigned) [Compound 364] | +++ (+++ is >60%) | < 1 | +++ (+++ is >60%) | 
CC1(C)CC2CN1c1nc(-n3ccc(OCCC4(C(F)(F)F)CC4)n3)ccc1C(=O)NS(=O)(=O)c1cccc(n1)NCCC2c1ccccc1 (single isomer, unassigned) [Compound 386, 12,12-Dimethyl-15-phenyl-8-(3-{2-[1-(trifluoromethyl)cyclopropyl]ethoxy}-1H-pyrazol-1-yl)-2λ^6-thia-3,9,11,18,23-pentaazatetracyclo[17.3.1.111,14.05,10]tetracosa-1(22),5,7,9,19(23),20-hexaene-2,2,4-trione] |  |  | ++ (++ is 30-60%) | < 1
CC1(C)CC2CC(c3ccccc3)CNc3cccc(n3)S(=O)(=O)NC(=O)c3ccc(-n4ccc(OCCC5(C(F)(F)F)CC5)n4)nc3N1C2 (single isomer, unassigned) [Compound 390, 12,12-dimethyl-16-phenyl-8-(3-{2-[1-(trifluoromethyl)cyclopropyl]ethoxy}-1H-pyrazol-1-yl)-2λ^6-thia-3,9,11,18,23-pentaazatetracyclo[17.3.1.111,14.05,10]tetracosa-1(22),5,7,9,19(23),20-hexaene-2,2,4-trione] |  |  | +++ (+++ is >60%) | < 1
CC1(C)CC2CC(c3ccccc3)CNc3cccc(n3)S(=O)(=O)NC(=O)c3ccc(-n4ccc(OCCC5(C(F)(F)F)CC5)n4)nc3N1C2 (single isomer, unassigned) [Compound 392, 12,12-dimethyl-16-phenyl-8-(3-{2-[1-(trifluoromethyl)cyclopropyl]ethoxy}-1H-pyrazol-1-yl)-2λ^6-thia-3,9,11,18,23-pentaazatetracyclo[17.3.1.111,14.05,10]tetracosa-1(22),5,7,9,19(23),20-hexaene-2,2,4-trione] |  |  | ++ (++ is 30-60%) | < 1
Cn1cnnc1CN1CCC[C@@H]2CN(c3nc(-n4ccc(OCCC5(C(F)(F)F)CC5)n4)ccc3C(=O)NS(=O)(=O)c3cccc1n3)C(C)(C)C2 [Compound 373] |  |  | ++ (++ is 30-60%) | < 1
CC1(C)C[C@@H]2CCCN(CCC(N)=O)c3cccc(n3)S(=O)(=O)NC(=O)c3ccc(-n4ccc(OCCC5(C(F)(F)F)CC5)n4)nc3N1C2 [Compound 378, 3-[(14S)-12,12-Dimethyl-2,2,4-trioxo-8-(3-{2-[1-(trifluoromethyl)cyclopropyl]ethoxy}-1H-pyrazol-1-yl)-2λ^6-thia-3,9,11,18,23-pentaazatetracyclo[17.3.1.111,14.05,10]tetracosa-1(23),5(10),6,8,19,21-hexaen-18-yl]propanamide] |  |  | +++ (+++ is >60%) | < 1
